The supplement of paper PMC9663587

How the values were obtained:
AZD6738 = compound: C[C@@H]1COCCN1c1cc(C2([S@](C)(=N)=O)CC2)nc(-c2cc[nH]c3nccc2-3)n1 [AZD6738]
[1] = compound: CCN1CCN(Cc2ccc(Nc3ncc(F)c(-c4cc(F)c5nc(C)n(C(C)C)c5c4)n3)nc2)CC1
Vorinostat = compound: O=C(CCCCCCC(=O)Nc1ccccc1)NO [Vorinostat]
AZD5363 = compound: NC1(C(=O)N[C@@H](CCO)c2ccc(Cl)cc2)CCN(c2nc[nH]c3nccc2-3)CC1 [AZD5363]
Everolimus = compound: CO[C@H]1C[C@@H]2CC[C@@H](C)[C@@](O)(O2)C(=O)C(=O)N2CCCC[C@H]2C(=O)O[C@H]([C@H](C)C[C@@H]2CC[C@@H](OCCO)[C@H](OC)C2)CC(=O)[C@H](C)/C=C(\C)[C@@H](O)[C@@H](OC)C(=O)[C@H](C)C[C@H](C)/C=C/C=C/C=C/1C [Everolimus]
YKL-5-124 = compound: C=CC(=O)Nc1ccc(C(=O)Nc2[nH]nc3c2CN(C(=O)N[C@H](CN(C)C)c2ccccc2)C3(C)C)cc1 [YKL-5-124]
SHP099 = compound: CC1(CCN(CC1)C2=CN=C(C(=N2)N)C3=C(C(=CC=C3)Cl)Cl)N [SHP099]
Etoposide = compound: COc1cc([C@@H]2c3cc4c(cc3[C@@H](O[C@@H]3O[C@@H]5CO[C@@H](C)O[C@H]5[C@H](O)[C@H]3O)[C@H]3COC(=O)[C@H]23)OCO4)cc(OC)c1O [Etoposide]
Cisplatin = compound: N.N.Cl[Pt]Cl [Cisplatin]
Bleomycin = compound: CC1=C(N=C(N=C1N)[C@H](CC(=O)N)NC[C@@H](C(=O)N)N)C(=O)N[C@@H]([C@H](C2=CN=CN2)OC3C(C(C(C(O3)CO)O)O)OC4C(C(C(C(O4)CO)O)OC(=O)N)O)C(=O)N[C@H](C)[C@H]([C@H](C)C(=O)N[C@@H]([C@@H](C)O)C(=O)NCCC5=NC(=CS5)C6=NC(=CS6)C(=O)NCCC[S+](C)C)O [Bleomycin]; conditions: main component drawn
[2] = compound: COc1cccc(OCCCN)c1-c1cc(Nc2cnc(C#N)cn2)n[nH]1
Topotecan = compound: CC[C@@]1(O)C(=O)OCc2c1cc1n(c2=O)Cc2cc3c(CN(C)C)c(O)ccc3nc2-1 [Topotecan]
FMF-03-145-1 = compound: CCC(=O)Nc1ccc(C(=O)Nc2ccc(Nc3ncc4c(n3)N(C)c3ccc(C)cc3C(=O)N4C)cc2)cc1 [FMF-03-145-1]
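Note: breast cancer and non-malignant breast epithelial cell lines, Deep Dye Drop or Dye Drop imaging, nine half-log doses, GR normalized to time-zero plates and DMSO-only controls.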

Cell Line	GR50, 72 h (AZD6738) [µM]	GR50, 72 h [1] [µM]	GR50, 72 h (Vorinostat) [µM]	GR50, 72 h (AZD5363) [µM]	GR50, 72 h (Everolimus) [µM]	GR50, 72 h (YKL-5-124) [µM]	GR50, 72 h (SHP099) [µM]	GR50, 72 h (Etoposide) [µM]	GR50, 72 h (Cisplatin) [µM]	GR50, 72 h (Bleomycin) [µM]	GR50, 72 h [2] [µM]	GR50, 72 h (Topotecan) [µM]	GR50, 72 h (FMF-03-145-1) [µM]
184A1	> 10	0.0256	2.52	> 10	> 10	< 0.001	6.56	–	–	–	–	–	–
BT20	5.85	0.0613	2.22	2	–	0.0135	> 10	0.301	0.791	0.488	0.000944	0.0123	–
BT474	7.93	–	2.71	–	–	< 0.001	> 10	–	–	–	–	–	–
BT549	3.97	3.97	2.37	> 10	> 10	0.00293	> 10	0.181	1.02	0.18	2.27e-05	0.00847	–
CAL51	5.34	0.113	1.83	> 10	> 10	0.00889	> 10	0.24	2.1	0.169	0.000588	0.0191	0.00666
CAL120	> 10	0.247	1.35	> 10	> 10	0.00898	> 10	0.48	2.93	1.69	0.000952	0.00749	0.00643
CAL851	4.62	1.3	1.2	> 10	0.00155	–	> 10	0.416	1.03	0.453	0.000351	0.0158	0.00449
CAMA1	8.16	0.00786	0.884	0.0498	–	–	> 10	0.155	0.919	1.69	0.00063	0.00321	0.00649
EFM19	> 10	0.025	2.66	1.63	< 0.001	< 0.001	> 10	–	–	–	–	–	0.00827
EVSAT	> 10	1.25	2.5	0.0128	–	< 0.001	> 10	–	–	–	–	–	–
HCC38	2	0.0446	0.96	> 10	–	< 0.001	> 10	0.334	0.993	0.199	0.000505	0.00681	0.00507
HCC70	1.84	1.9	0.413	0.0256	0.245	< 0.001	> 10	0.365	1.32	0.398	–	0.00946	–
HCC202	8.72	2.43	3.57	> 10	–	–	> 10	–	–	–	0.00549	–	–
HCC1143	5.13	0.0703	0.91	> 10	> 10	< 0.001	> 10	0.463	0.837	0.0482	0.000582	0.00941	0.00583
HCC1187	1.21	–	1.07	–	> 10	–	> 10	–	–	–	–	–	–
HCC1395	1.81	0.112	3.27	0.135	0.00256	0.00123	> 10	0.42	0.491	0.104	0.000487	0.00275	0.00474
HCC1419	8.9	0.0969	1.8	> 10	–	< 0.001	> 10	0.736	1.79	4.04	0.000648	0.00719	0.00703
HCC1428	–	0.00979	0.835	–	0.031	–	–	0.214	0.901	4.26	–	0.0106	–
HCC1500	–	0.479	0.96	–	–	–	–	1.43	3.45	2.28	–	0.00546	–

Cell Line	GR50, 72 h (AZD6738) [µM]	GR50, 72 h [1] [µM]	GR50, 72 h (Vorinostat) [µM]	GR50, 72 h (AZD5363) [µM]	GR50, 72 h (Everolimus) [µM]	GR50, 72 h (YKL-5-124) [µM]	GR50, 72 h (SHP099) [µM]	GR50, 72 h (Etoposide) [µM]	GR50, 72 h (Cisplatin) [µM]	GR50, 72 h (Bleomycin) [µM]	GR50, 72 h [2] [µM]	GR50, 72 h (Topotecan) [µM]	GR50, 72 h (FMF-03-145-1) [µM]
HCC1569	3.49	4.64	3.31	0.358	> 10	–	> 10	–	–	–	0.00228	–	–
HCC1806	1.1	0.554	1.13	> 10	> 10	< 0.001	> 10	0.0964	0.833	8.98	–	0.00527	–
HCC1937	9.08	4.82	1.91	> 10	> 10	0.00225	> 10	0.355	0.777	0.187	0.000607	0.0155	0.00546
HCC1954	5.43	0.302	1.43	3.06	–	< 0.001	> 10	0.171	1.25	0.0438	–	0.0119	–
HS578T	5.26	0.0776	0.904	4.82	0.00554	< 0.001	> 10	0.413	1.54	0.252	–	0.00498	–
HTERT_HME1	5.78	0.199	3.02	> 10	–	< 0.001	> 10	0.138	1.12	0.207	0.000593	0.00727	0.00584
MCF7	3.05	0.0236	0.542	> 10	0.00269	< 0.001	> 10	0.135	9.32	0.0772	–	0.00604	–
MCF10A	9.08	0.34	2.53	> 10	> 10	< 0.001	> 10	0.284	4.29	0.177	–	0.00987	–
MCF10A (GM)	6.85	–	–	> 10	–	< 0.001	> 10	–	–	–	0.0122	–	0.00563
MCF12A	3.06	5.94	6.67	> 10	> 10	0.0013	> 10	–	–	–	0.000725	–	0.00914
MDAMB157	–	1.8	1.1	–	> 10	–	–	0.112	5.24	1.29	–	0.00595	–
MDAMB175VII	8.53	0.00292	0.546	0.0495	< 0.001	–	2.47	–	–	–	0.0266	–	–
MDAMB231	8.89	0.0468	1.24	> 10	> 10	< 0.001	> 10	0.704	2.41	6.32	0.000148	0.0297	–
MDAMB330	8.42	0.00409	1.55	0.198	< 0.001	–	–	–	–	–	0.000237	–	–
MDAMB361	4.79	0.00535	0.762	0.654	< 0.001	< 0.001	> 10	1.19	2.63	0.758	0.000459	0.0114	0.00904
MDAMB415	> 10	0.00897	2.92	0.0101	–	0.00409	> 10	–	–	–	–	–	–
MDAMB436	9.07	2.1	2.68	> 10	> 10	0.0324	> 10	0.26	0.417	0.855	0.000612	0.00594	0.00578
MDAMB453	4.74	0.00577	0.944	1.55	–	< 0.001	> 10	0.383	3.4	1.31	0.0005	0.00669	0.00648
MDAMB468	> 10	2.34	1.57	> 10	> 10	< 0.001	> 10	0.488	1.26	0.823	–	0.0158	0.00536

Cell Line	GR50, 72 h (AZD6738) [µM]	GR50, 72 h [1] [µM]	GR50, 72 h (Vorinostat) [µM]	GR50, 72 h (AZD5363) [µM]	GR50, 72 h (Everolimus) [µM]	GR50, 72 h (YKL-5-124) [µM]	GR50, 72 h (SHP099) [µM]	GR50, 72 h (Etoposide) [µM]	GR50, 72 h (Cisplatin) [µM]	GR50, 72 h (Bleomycin) [µM]	GR50, 72 h [2] [µM]	GR50, 72 h (Topotecan) [µM]	GR50, 72 h (FMF-03-145-1) [µM]
MGH312	–	2.43	0.799	< 0.001	< 0.001	0.00434	> 10	–	–	–	–	–	–
PDX1206	4.6	–	–	0.457	–	0.0811	> 10	–	–	–	0.00357	–	–
PDX1258	3.53	0.674	1.57	3.52	> 10	0.00166	> 10	0.317	2.56	0.783	0.000103	0.0135	–
PDX1328	–	0.0288	0.687	> 10	–	–	> 10	0.805	0.784	4	0.000974	0.00592	–
PDXHCI002	> 10	0.0484	0.282	> 10	> 10	< 0.001	> 10	0.182	1.73	1.16	–	0.00665	–
SKBR3	0.845	0.0353	0.767	2.76	< 0.001	< 0.001	> 10	0.398	5.11	1.05	0.000441	0.0165	0.00508
SUM44PE	0.549	0.0473	1.86	0.0475	< 0.001	–	> 10	–	–	–	0.000342	–	–
SUM52PE	5.11	0.376	4.26	3.52	> 10	0.0453	> 10	–	–	–	0.00264	–	–
SUM149	3.87	0.594	1.37	6.67	> 10	< 0.001	> 10	0.127	0.571	0.039	0.000514	0.00569	0.00558
SUM159	9.98	0.565	3.28	9.8	> 10	< 0.001	> 10	0.398	4.32	0.262	0.000711	0.0182	0.00548
SUM185PE	> 10	9.37	6.86	8.7	> 10	0.0819	> 10	–	–	–	–	–	–
SUM190PT	4.09	0.0206	0.402	2.35	0.00331	< 0.001	> 10	–	–	–	0.00042	–	–
SUM229PE	3.34	0.531	3.48	> 10	> 10	< 0.001	> 10	–	–	–	0.00707	–	–
SUM1315	4.46	0.0493	1.76	> 10	–	0.0168	> 10	0.29	1.28	0.214	0.000483	0.0118	0.0047
T47D	> 10	0.00428	1.83	0.0138	< 0.001	< 0.001	> 10	0.0417	1.57	0.199	–	0.00523	–
UACC812	5.82	0.00485	1.12	8.81	–	< 0.001	> 10	–	–	–	–	–	0.00186
UACC893	9.33	0.00967	3.72	0.0291	–	0.00386	> 10	–	–	–	0.0579	–	–
ZR751	> 10	0.0666	3.55	> 10	< 0.001	0.0019	> 10	–	–	–	0.0012	–	0.00573
ZR7530	> 10	0.00886	0.844	0.192	–	–	> 10	–	–	–	–	–	–
